According to paper PMC3914206:

Legend:
Assay type in all cases: binding
panel of 442 kinases [1] = target: T1, panel of 442 kinases (Homo sapiens, UniProt Q13976); settings: Compound Concentration 10 µM
T1 construct: purchased KINOMEscan
T1 sequence (Q13976 1-671): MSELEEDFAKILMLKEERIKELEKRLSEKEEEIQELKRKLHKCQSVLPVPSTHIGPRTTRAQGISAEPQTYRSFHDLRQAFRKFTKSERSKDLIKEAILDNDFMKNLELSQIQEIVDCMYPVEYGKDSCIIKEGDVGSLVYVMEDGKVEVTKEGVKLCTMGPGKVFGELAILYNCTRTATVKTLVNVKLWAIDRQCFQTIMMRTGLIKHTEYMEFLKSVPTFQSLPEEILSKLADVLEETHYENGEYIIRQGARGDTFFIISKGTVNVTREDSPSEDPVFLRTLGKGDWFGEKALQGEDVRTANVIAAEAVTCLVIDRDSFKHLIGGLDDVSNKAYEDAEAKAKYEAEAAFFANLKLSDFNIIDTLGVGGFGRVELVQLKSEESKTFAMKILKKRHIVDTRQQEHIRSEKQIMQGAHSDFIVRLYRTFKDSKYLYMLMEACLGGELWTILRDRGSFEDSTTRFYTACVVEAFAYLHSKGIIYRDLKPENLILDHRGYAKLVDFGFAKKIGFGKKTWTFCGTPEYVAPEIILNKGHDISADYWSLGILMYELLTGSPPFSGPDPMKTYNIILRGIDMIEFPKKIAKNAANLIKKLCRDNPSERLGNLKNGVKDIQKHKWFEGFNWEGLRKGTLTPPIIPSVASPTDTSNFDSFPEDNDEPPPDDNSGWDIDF
Source text: (§1) We assessed the selectivity of members of this scaffold using the KINOMEscan methodology across a near comprehensive panel of 442 kinases [[18,27]].

panel of 442 kinases [2] = target: T2, panel of 442 kinases (Homo sapiens, UniProt Q86Z02); settings: Compound Concentration 10 µM
T2 construct: purchased KINOMEscan
T2 sequence (Q86Z02 whole entry): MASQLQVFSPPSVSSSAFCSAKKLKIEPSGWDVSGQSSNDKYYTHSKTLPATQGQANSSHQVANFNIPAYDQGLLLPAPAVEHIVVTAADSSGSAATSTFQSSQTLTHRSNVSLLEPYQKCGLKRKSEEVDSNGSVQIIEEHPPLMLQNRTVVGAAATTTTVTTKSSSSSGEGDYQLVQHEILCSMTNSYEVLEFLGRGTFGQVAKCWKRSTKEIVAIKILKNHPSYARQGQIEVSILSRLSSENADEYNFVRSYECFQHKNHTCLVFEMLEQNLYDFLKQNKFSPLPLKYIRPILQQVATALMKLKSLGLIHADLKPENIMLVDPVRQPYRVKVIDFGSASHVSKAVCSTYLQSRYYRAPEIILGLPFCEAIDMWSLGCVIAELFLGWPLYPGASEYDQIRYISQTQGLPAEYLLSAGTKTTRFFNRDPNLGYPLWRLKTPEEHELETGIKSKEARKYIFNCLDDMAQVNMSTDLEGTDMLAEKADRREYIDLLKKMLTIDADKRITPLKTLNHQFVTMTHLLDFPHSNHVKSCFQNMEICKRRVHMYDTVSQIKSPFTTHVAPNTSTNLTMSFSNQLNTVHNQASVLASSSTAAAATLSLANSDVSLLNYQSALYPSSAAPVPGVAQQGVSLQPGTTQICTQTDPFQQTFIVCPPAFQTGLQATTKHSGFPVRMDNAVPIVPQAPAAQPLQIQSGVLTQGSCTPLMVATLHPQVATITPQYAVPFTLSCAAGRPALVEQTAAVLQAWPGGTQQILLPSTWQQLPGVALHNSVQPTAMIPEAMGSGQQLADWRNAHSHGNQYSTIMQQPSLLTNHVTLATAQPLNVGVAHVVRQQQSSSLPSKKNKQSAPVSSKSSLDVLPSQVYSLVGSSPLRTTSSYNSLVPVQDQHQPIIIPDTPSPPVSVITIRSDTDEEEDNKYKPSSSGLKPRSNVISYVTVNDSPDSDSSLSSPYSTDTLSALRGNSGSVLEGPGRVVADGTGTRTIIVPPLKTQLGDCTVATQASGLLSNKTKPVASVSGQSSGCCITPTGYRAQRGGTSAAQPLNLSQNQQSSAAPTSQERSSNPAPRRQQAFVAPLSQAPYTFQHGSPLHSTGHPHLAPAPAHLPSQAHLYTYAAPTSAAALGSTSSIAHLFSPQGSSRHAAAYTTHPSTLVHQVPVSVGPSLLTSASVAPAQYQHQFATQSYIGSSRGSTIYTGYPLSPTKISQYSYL
Source text: as §1

panel of 442 kinases [3] = target: T3, panel of 442 kinases (Homo sapiens, UniProt P35968); settings: kinase VEGFR2; compound concentration 10 µM
T3 construct: purchased KINOMEscan
T3 sequence (P35968 20-1356): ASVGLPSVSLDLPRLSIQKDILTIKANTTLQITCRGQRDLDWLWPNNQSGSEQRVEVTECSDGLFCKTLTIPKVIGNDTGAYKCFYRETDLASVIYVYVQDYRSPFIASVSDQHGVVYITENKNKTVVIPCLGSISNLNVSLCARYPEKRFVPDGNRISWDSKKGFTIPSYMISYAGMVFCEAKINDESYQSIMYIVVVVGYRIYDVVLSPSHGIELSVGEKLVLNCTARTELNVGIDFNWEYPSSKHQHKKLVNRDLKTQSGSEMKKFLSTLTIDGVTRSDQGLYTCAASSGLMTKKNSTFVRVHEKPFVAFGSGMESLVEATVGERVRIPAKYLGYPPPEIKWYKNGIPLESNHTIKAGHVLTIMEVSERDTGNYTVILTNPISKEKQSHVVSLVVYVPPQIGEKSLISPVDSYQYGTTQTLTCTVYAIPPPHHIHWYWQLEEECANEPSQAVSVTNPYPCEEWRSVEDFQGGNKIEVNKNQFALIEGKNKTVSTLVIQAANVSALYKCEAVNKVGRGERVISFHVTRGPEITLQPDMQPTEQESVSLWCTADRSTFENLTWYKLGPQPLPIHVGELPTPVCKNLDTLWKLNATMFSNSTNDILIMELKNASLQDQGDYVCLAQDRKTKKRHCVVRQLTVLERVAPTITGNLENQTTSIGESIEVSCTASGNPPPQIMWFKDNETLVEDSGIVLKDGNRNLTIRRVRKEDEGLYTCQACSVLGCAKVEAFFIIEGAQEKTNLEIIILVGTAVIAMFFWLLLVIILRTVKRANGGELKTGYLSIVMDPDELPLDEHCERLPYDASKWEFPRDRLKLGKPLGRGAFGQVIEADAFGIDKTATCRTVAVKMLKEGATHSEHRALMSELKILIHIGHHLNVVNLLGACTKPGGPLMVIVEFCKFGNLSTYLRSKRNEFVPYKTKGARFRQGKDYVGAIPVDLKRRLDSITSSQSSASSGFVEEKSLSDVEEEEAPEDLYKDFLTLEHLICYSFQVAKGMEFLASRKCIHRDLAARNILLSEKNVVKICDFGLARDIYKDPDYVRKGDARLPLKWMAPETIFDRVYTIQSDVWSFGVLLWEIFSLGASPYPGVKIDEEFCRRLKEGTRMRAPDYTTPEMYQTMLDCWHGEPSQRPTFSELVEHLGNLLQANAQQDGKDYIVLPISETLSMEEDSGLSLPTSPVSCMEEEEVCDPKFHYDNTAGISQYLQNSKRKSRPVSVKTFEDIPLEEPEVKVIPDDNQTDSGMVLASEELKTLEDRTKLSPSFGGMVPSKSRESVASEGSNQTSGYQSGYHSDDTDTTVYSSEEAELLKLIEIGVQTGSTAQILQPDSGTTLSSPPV
Source text: as §1

SMILES	KINOMEscan: PRKG1 (panel of 442 kinases [1])	KINOMEscan: HIPK1 (panel of 442 kinases [2])	% Ctrl, VEGFR2 (panel of 442 kinases [3]) [% Ctrl]
CCOc1cc(C(=O)N2CCC(N3CCN(C)CC3)CC2)ccc1Nc1ncc2c(n1)N(C1CCCC1)c1ccccc1C(=O)N2C [Compound 26]	100	100	100
COc1cc(C(=O)N2CCC(N3CCN(C)CC3)CC2)ccc1Nc1ncc2c(n1)N(C1CCCC1)c1ccccc1C(=O)N2C [Compound 25, 11-cyclopentyl-2-((2-methoxy-4-(4-(4-methylpiperazin-1-yl)piperidine-1-carbonyl)phenyl)amino)-5-methyl-5H-benzo[e]pyrimido[5,4-b][1,4]diazepin-6(11H)-one]	100	100	100
COc1cc(C(=O)N2CCC(N3CCN(C)CC3)CC2)ccc1Nc1ncc2c(n1)N1CCc3cccc(c31)C(=O)N2C [Compound 24]	–	52	100
COc1cc(C(=O)N2CCC(N3CCN(C)CC3)CC2)ccc1Nc1ncc2c(n1)N(C)c1ccccc1C(=O)N2C [15 (LRRK2-IN-1)]	98	100	84
